Where “and” joins values, the source holds several entries; their conditions need not be identical. Equal values may be shown once. Read-outs that look alike come from different tables or passages of the source. One block for each compound: values may come before it.
Tests used:
[1] = tested on: Hepatocellular carcinoma (HePG2); test: Antitumor screening using MTT assay; assay type: cell-based, human; conditions: Homo sapiens; for viability at 1.56 µM: Conc. 1.56 µM; for viability at 1.56 µM / viability at 3.125 µM / viability at 6.25 µM / viability at 12.5 µM / viability at 25 µM / viability at 50 µM / viability at 100 µM: read-out: Average of Relative viability of cells (%); for viability at 3.125 µM: Conc. 3.125 µM; for viability at 6.25 µM: Conc. 6.25 µM; for viability at 12.5 µM: Conc. 12.5 µM; for viability at 25 µM: Conc. 25 µM; for viability at 50 µM: Conc. 50 µM; for viability at 100 µM: Conc. 100 µM; for IC50: mean ± SD, n = 3, read-out: In-vitro cytotoxicity IC50 (µM) HePG2
Source text: (§3) Hepatocellular carcinoma (HePG2), mammary gland breast cancer (MCF-7), epithelioid carcinoma cervix cancer (Hela), and human prostate cancer were included on the panel (PC3). […] The cell lines were obtained from the American Type Culture Collection (ATCC) through VACSERA, a Cairo-based holding firm for biological goods and vaccines.
(§4) The panel consisted of hepatocellular carcinoma (HePG2), mammary gland breast cancer (MCF-7), epithelioid carcinoma cervix cancer (Hela) and human prostate cancer (PC3). Human lung fibroblast (WI38) was used to assay the cytotoxicity effect on normal cell. The cell lines were obtained from ATCC via Holding company for biological products and vaccines (VACSERA), Cairo, Egypt. The cytotoxic activity was defined as the concentration of the compound that causes 50% growth inhibition compared with the growth of untreated cells.

[2] = In vitro cytotoxicity against human normal cell line (MTT); assay type: cell-based; conditions: human, WI38, read-out: Average of Relative viability of cells (%); for viability at 3.125 µM: Conc. 3.125 µM; for viability at 6.25 µM: Conc. 6.25 µM; for viability at 12.5 µM: Conc. 12.5 µM; for viability at 25 µM: Conc. 25 µM; for viability at 50 µM: Conc. 50 µM; for viability at 100 µM: Conc. 100 µM; for viability at 1.56 µM: Conc. 1.56 µM
Source text: (§1) The anticancer agent's selectivity for cancer cells is a critical consideration for any researcher, as it can decrease the molecule's adverse effects on normal human cells.

[3] = tested on: human lung fibroblast (WI38); test: as above; assay type: cell-based; conditions: Homo sapiens, WI-38, human normal cell line WI38; mean ± SD, n = 3
Source text: as §1

Hela cells [4] = test: Cell cycle arrest analysis; assay type: cell-based, human
Protocol: So, compound 8 was assessed its activity on cell cycle distribution and induction of apoptosis in different phases of Hela cells.
(§2) Annexin V-FITC and PI apoptosis kit were used to detect apoptosis (eBioscience™, San Diego, CA, USA). On a six well plate, Mcf cells were plated at a density of 600,000 cells/ml. The cells were treated with compound 8 at […] after 24 h of incubation. The solvent control consisted of cells developed in medium containing an equivalent volume of DMSO. In accordance with the instructions supplied by the Annexin V-FITC and PI apoptosis kit, the cells were stained with an Annexin V-FITC conjugate and propidium iodide (PI) after 24 h. The percentage of apoptotic, necrotic, and alive cells was then calculated. By using a flow cytometer (NovoCyte, ACEA Biosciences Inc, San Diego, CA, US) and the NovoExpress 1.3.0 software (ACEA Biosciences Inc, San Diego, CA, US), the cells' released fluorescence was examined. Each point on the population plot ("dot plot") corresponds to a single event with a particular fluorescence signal in relation to the axes: Annexin V-FITC green fluorescence.
Researcher : Dr.Omar El-Khouly email : dr.kholy93@gmail.com mob. 01278084495
Assay : Cell Cycle Analysis
Kit used : ab139418_Propidium Iodide Flow Cytometry Kit/BD
Assay samples : Cell culture
code IC50 %G0-G1 %S %G2/M %Pre-G1 Comment
(also on this page, place not known: 0 20 40 60 % OE -G12 /Hela Cont. Hela DNA content %G0-G1 %S %G2/M %Pre-G1)
(1 picture or pasted object on this page, not shown here)

Hela cells [5] = test: Detection of apoptosis (Annexin V-FITC/PI); assay type: cell-based, human
Protocol: In Hela cells, compound 8 induced an early apoptotic effect with 1.79% at 24 h. Also, the enhanced late apoptotic induction with 14.11% by 83-fold compared to the Hela control cell (0.17%). On other hand, necrotic effect in Hela at 24 h was induced by compounds 8 with 8.81% compared to the control cells (1.15%).
as §2

[6] = tested on: HePG2, MCF-7, Hela, PC3 cell lines; test: Antitumor screening using MTT assay, statements across several cell lines; assay type: cell-based, human; conditions: Homo sapiens
Source text: as §3, §4

[7] = tested on: mammary gland breast cancer (MCF-7); test: Antitumor screening using MTT assay; conditions: Homo sapiens; for viability at 1.56 µM / viability at 3.125 µM / viability at 6.25 µM / viability at 12.5 µM / viability at 25 µM / viability at 50 µM / viability at 100 µM: MCF7, read-out: Average of Relative viability of cells (%); for IC50: MCF7, read-out: In-vitro cytotoxicity IC50 (µM) MCF-7
Source text: as §3, §4

[8] = tested on: epithelioid carcinoma cervix cancer (Hela); test: Antitumor screening using MTT assay; conditions: Homo sapiens, HeLa; for viability at 1.56 µM / viability at 3.125 µM / viability at 6.25 µM / viability at 12.5 µM / viability at 25 µM / viability at 50 µM / viability at 100 µM: read-out: Average of Relative viability of cells (%); for IC50: read-out: In-vitro cytotoxicity IC50 (µM) Hela
Source text: as §3, §4

[9] = tested on: human prostate cancer (PC3); test: Antitumor screening using MTT assay; conditions: Homo sapiens; for viability at 1.56 µM / viability at 3.125 µM / viability at 6.25 µM / viability at 12.5 µM / viability at 25 µM / viability at 50 µM / viability at 100 µM: read-out: Average of Relative viability of cells (%); for IC50: read-out: In-vitro cytotoxicity IC50 (µM) PC3
Source text: as §3, §4

human PI3Kα = human PI3Kα (Homo sapiens, UniProt P42336); test: Human PI3Kα enzyme inhibition assay (ELISA)
Sequence of human PI3Kα (P42336 whole entry): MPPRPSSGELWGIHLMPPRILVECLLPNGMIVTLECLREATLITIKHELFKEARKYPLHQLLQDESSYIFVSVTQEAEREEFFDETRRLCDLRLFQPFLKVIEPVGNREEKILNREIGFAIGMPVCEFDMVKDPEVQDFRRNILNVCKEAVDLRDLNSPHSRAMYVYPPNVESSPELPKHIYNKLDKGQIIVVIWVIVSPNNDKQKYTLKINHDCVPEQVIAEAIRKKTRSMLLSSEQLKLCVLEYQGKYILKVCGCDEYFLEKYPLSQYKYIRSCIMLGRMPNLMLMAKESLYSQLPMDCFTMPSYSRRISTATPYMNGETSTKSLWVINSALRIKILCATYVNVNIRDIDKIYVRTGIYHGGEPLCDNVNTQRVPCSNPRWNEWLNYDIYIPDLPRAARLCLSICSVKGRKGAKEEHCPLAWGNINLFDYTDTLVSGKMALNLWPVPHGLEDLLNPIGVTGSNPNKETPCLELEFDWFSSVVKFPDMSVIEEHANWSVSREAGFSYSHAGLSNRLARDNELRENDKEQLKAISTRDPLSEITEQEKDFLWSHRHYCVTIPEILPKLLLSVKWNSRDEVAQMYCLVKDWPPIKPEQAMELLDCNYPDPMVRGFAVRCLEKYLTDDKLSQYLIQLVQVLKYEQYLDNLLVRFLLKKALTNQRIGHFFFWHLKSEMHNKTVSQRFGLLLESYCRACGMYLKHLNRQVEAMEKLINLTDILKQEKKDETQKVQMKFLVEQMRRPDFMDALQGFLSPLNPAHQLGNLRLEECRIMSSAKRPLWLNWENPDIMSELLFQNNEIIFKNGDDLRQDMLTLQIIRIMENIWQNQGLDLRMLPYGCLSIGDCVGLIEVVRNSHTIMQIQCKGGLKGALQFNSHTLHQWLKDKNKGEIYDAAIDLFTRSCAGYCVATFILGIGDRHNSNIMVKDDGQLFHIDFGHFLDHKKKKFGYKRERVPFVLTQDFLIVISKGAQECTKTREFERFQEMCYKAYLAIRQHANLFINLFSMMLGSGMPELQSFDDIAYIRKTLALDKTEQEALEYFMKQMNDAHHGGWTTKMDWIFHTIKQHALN
Sequence of human PI3Kα (P27986 whole entry partner): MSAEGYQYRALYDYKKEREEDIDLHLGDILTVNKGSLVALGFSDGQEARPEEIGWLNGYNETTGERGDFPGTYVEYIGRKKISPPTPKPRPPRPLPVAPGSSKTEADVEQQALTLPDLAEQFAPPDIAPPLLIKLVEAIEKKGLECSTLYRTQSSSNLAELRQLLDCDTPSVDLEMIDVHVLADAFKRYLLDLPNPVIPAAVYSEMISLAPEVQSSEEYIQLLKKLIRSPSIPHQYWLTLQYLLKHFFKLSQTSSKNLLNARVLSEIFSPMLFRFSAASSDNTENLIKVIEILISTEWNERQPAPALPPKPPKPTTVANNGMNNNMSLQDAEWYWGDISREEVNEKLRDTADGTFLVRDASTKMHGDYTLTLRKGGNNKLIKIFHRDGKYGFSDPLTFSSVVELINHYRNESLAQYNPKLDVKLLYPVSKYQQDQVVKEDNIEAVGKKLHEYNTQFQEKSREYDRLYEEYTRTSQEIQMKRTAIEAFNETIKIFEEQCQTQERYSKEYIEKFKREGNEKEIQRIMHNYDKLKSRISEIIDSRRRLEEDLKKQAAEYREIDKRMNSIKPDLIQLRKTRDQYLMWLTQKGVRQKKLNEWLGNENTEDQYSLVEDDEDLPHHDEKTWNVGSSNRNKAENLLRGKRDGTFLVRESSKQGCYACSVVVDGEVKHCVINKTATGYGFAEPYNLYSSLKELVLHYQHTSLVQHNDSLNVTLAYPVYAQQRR
Protocol: (§5) PI3Kα and VEGFR-2 activity were verified by enzyme-linked immunosorbent assay (ELISA) assay technique. […] Then, the mean absorbance of each group of standard and tested compounds was determined. The standard curve was drawn on log–log paper with the absorbance on the Y-axis and the standard concentration on the X-axis.

human VEGFR-2 = human VEGFR-2 (Homo sapiens, UniProt P35968); test: Human VEGFR-2 enzyme inhibition assay (ELISA)
Sequence of human VEGFR-2 (P35968 20-1356): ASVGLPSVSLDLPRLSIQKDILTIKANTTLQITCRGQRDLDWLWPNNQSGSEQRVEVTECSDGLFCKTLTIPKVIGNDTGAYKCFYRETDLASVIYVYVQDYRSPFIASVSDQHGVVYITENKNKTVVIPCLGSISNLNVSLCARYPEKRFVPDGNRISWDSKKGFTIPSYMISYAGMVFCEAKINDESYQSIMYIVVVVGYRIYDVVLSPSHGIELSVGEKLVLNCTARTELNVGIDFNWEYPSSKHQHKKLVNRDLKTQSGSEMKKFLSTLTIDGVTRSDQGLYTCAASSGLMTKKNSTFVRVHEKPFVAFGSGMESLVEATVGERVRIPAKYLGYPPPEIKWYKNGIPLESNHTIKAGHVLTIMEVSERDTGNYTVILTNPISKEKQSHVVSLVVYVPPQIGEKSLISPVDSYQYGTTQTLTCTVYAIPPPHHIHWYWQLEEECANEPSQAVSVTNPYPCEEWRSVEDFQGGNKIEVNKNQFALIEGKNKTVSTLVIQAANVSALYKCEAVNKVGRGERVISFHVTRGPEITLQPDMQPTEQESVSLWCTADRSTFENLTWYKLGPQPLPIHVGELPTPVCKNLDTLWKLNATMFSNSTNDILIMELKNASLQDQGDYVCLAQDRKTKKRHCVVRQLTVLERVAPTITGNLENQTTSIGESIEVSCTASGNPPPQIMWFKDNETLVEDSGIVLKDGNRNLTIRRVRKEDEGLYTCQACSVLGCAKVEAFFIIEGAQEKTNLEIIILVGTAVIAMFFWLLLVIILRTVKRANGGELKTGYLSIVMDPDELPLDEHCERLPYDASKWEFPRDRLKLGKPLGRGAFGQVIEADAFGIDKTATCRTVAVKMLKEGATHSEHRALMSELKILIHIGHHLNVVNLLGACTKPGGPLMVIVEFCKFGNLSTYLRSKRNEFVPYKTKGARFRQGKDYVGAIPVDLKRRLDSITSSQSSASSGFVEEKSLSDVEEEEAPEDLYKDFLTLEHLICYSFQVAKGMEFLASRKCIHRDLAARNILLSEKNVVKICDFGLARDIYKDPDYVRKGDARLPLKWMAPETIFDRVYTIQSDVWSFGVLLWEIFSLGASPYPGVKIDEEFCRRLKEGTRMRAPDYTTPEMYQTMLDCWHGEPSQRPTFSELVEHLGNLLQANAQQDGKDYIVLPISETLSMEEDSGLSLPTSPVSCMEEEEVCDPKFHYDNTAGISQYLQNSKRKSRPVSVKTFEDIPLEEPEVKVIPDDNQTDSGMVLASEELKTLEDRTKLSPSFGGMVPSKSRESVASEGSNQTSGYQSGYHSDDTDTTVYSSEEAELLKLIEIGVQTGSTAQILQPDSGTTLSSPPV
Protocol: as §5

[10] = WI38 human lung fibroblast cells (normal cell line)
[11] = WI38 normal lung fibroblast cells

IC50 ([6]; PC-3, read-out: IC50 range against HePG and PC3 cell lines): 11 to 17 µM | melting point: 207 to 209 °C | IC50 (human PI3Kα; PI3K-α IC50 ng/ml, supplement lab report): 6.43 nM | IC50 (human PI3Kα; PI3Kα enzymatic IC50 (nM), mean of triplicate): 2.21 ± 0.11 nM | PI3K-α %inh (human PI3Kα; conc 0.1 (unit not given)): 22.1% | PI3K-α %inh (human PI3Kα; conc 1 (unit not given)): 42.7% | PI3K-α %inh (human PI3Kα; conc 10 (unit not given)): 67% | PI3K-α %inh (human PI3Kα; conc 100 (unit not given)): 80.7% | IC50 (human VEGFR-2; VEGFR2 IC50 ng/ml, supplement lab report): 250 nM | IC50 (human VEGFR-2; VEGFR-2 enzymatic IC50 (nM), mean of triplicate): 68 nM and 86 nM | vegfr2 %inh (human VEGFR-2; conc 0.01 (unit not given)): 28.7% | vegfr2 %inh (human VEGFR-2; conc 0.1 (unit not given)): 52.7% | vegfr2 %inh (human VEGFR-2; conc 1 (unit not given)): 75.3% | vegfr2 %inh (human VEGFR-2; conc 10 (unit not given)): 90.4%
Structure (SMILES): C/C(=N\NC(=S)Nc1ccc(Cl)cc1)c1cc2ccccc2o1 [Compound 8, (E)-2-(1-(benzofuran-2-yl)ethylidene)-N-(4-chlorophenyl)hydrazine-1-carbothioamide]
viability at 1.56 µM [1]: 99.5% | viability at 3.125 µM [1]: 81.4% | viability at 6.25 µM [1]: 67.3% | viability at 12.5 µM [1]: 24.9% | viability at 25 µM [1]: 29.1% | viability at 50 µM [1]: 20.8% | viability at 100 µM [1]: 13.2% | IC50 [1]: 9.73 ± 0.7 µM | viability at 3.125 µM [2, 10]: 100% | viability at 6.25 µM [2, 10]: 89.3% | viability at 12.5 µM [2, 10]: 75.6% | viability at 25 µM [2, 10]: 62.7% | viability at 50 µM [2, 10]: 48.2% | viability at 100 µM [2, 10]: 36.4% | viability at 1.56 µM [2, 11]: 100% | IC50 [3]: 48.2 ± 2.8 µM | Cell cycle analysis comment (Hela cells [4]): Pre-G1 apoptosis and cell growth arrest at G1/S phase | Cell cycle distribution (%) %G0–G1 (Hela cells [4]): 47.06% | Cell cycle distribution (%) %G2/M (Hela cells [4]): 1.71% | Cell cycle distribution (%) %S (Hela cells [4]; 24 h): 51.23% | Cell cycle distribution (%) %Pre-G1 (Hela cells [4]; after 48 h exposure): 24.71% | Cell cycle analysis comment (Hela cells [4]; listed as OE-G12): cell growth arrest@G1/S phase | late apoptotic induction (Hela cells [5]): 14.11% | early apoptotic effect (Hela cells [5]; 24 h): 1.79% | necrotic effect (Hela cells [5]; 24 h): 8.81% | late apoptotic induction, fold compared to Hela control cell (Hela cells [5]; control 0.17%): 83 fold | viability at 1.56 µM [7]: 99.1% | viability at 3.125 µM [7]: 79.8% | viability at 6.25 µM [7]: 65.7% | viability at 12.5 µM [7]: 42.9% | viability at 25 µM [7]: 28.3% | viability at 50 µM [7]: 21.2% | viability at 100 µM [7]: 13.7% | IC50 [7]: 11.6 ± 0.9 µM | viability at 1.56 µM [8]: 88.6% | viability at 3.125 µM [8]: 76.1% | viability at 6.25 µM [8]: 53.7% | viability at 12.5 µM [8]: 32.8% | viability at 25 µM [8]: 24.5% | viability at 50 µM [8]: 16% | viability at 100 µM [8]: 8.2% | IC50 [8]: 7.94 ± 0.5 µM | viability at 1.56 µM [9]: 100% | viability at 3.125 µM [9]: 93.7% | viability at 6.25 µM [9]: 72.9% | viability at 12.5 µM [9]: 51.6% | viability at 25 µM [9]: 39.2% | viability at 50 µM [9]: 27.1% | viability at 100 µM [9]: 19.3% | IC50 [9]: 17.5 ± 1.3 µM

IC50 ([6]; Hela and PC3, one range for 9 and 10 together, read-out: IC50 values range against Hela and PC3 cell line): 13.8 to 32.1 µM | melting point: 130 to 132 °C
Structure (SMILES): COc1ccc(/C=N/N=C(\C)c2cc3ccccc3o2)cc1OC [Compound 9, (E)-1-[1-(benzofuran-2-yl)ethylidene]-2-((E)-3,4-dimethoxybenzylidene)hydrazine]
viability at 1.56 µM [1]: 100% | viability at 3.125 µM [1]: 94.4% | viability at 6.25 µM [1]: 78.2% | viability at 12.5 µM [1]: 60.5% | viability at 25 µM [1]: 49.6% | viability at 50 µM [1]: 36.8% | viability at 100 µM [1]: 26.2% | IC50 [1]: 26.4 ± 2.1 µM | viability at 3.125 µM [2, 10]: 100% | viability at 1.56 µM [2, 11]: 100% | viability at 6.25 µM [2, 11]: 99.7% | viability at 12.5 µM [2, 11]: 85.2% | viability at 25 µM [2, 11]: 74.5% | viability at 50 µM [2, 11]: 60.6% | viability at 100 µM [2, 11]: 47.9% | IC50 [3]: 82.3 ± 4.3 µM | viability at 1.56 µM [7]: 100% | viability at 3.125 µM [7]: 96% | viability at 6.25 µM [7]: 79.5% | viability at 12.5 µM [7]: 64.2% | viability at 25 µM [7]: 50.6% | viability at 50 µM [7]: 38.2% | viability at 100 µM [7]: 25.3% | IC50 [7]: 28.1 ± 2.3 µM | viability at 1.56 µM [8]: 100% | viability at 3.125 µM [8]: 92% | viability at 6.25 µM [8]: 73.2% | viability at 12.5 µM [8]: 50.4% | viability at 25 µM [8]: 37.1% | viability at 50 µM [8]: 28.2% | viability at 100 µM [8]: 20.3% | IC50 [8]: 17 ± 1.4 µM | viability at 1.56 µM [9]: 100% | viability at 3.125 µM [9]: 96.1% | viability at 6.25 µM [9]: 75.8% | viability at 12.5 µM [9]: 60.2% | viability at 25 µM [9]: 52.6% | viability at 50 µM [9]: 44.8% | viability at 100 µM [9]: 31.2% | IC50 [9]: 32.1 ± 2.2 µM
